Data as given in patent US20240156790A1, “COMPOUNDS, COMPOSITIONS, AND METHODS FOR MODULATING FERROPTOSIS AND TREATING EXCITOTOXIC DISORDERS” (THE TRUSTEES OF COLUMBIA UNIVERSITY IN THE CITY OF NEW YORK, priority 2018, published 2024).
“Also recorded” adds a separate entry of the source.

Tests used:
[1] = system: modified bacteria sensitive to mutagenic agents; type: cell-based; settings: […] to 82 μM, 3 days
Protocol: The AMES test uses modified bacteria sensitive to mutagenic agents to assess a compound's ability to cause direct DNA mutations. If the tested drug can induce reverse mutational events, it will cause bacteria to revert back to a prototrophic state and grow on media lacking selected nutrients. We tested TH-2-31, TH-4-55-2, and TH-4-67 using the AMES test. CFI-4082 was also included in the test for comparison. Bacteria strains were incubated under exposure to different concentrations of tested compounds for 3 days and collected 144 data points of mutation status at each concentration. The concentration ranged from 5.1 μM to 82 μM, which is the highest local organ concentration of our compounds in the above mice study (FIG. 12).
The Ames test uses modified bacteria sensitive to mutagenic agents to assess a compound's ability to cause direct DNA mutations. If a tested compound can induce revert mutational events, it will cause bacteria to revert back to a prototrophic state and grow on media lacking selected nutrients. We evaluated TH-2-31, TH-4-55-2, and TH-4-67 in the Ames test. We also included PHB4082 in this test. Bacteria strains were incubated under exposure to different concentrations of tested compounds for three days and 144 data points were collected on mutation status across a concentration range from 5.1 μM to 82 μM, which was the highest local organ concentration observed in previous mouse studies.

[2] = system: R6/2 Huntington's mouse model; experiment: 30-day toxicity study in symptomatic R6/2 and wild type mice; type: in vivo; settings: for tolerability of chronic administration: 20 mg/kg daily for 30 days, IP and PO; for protection against body weight loss / deaths after 30 days: R6/2 mice; for deaths after 30 days: 20 mg/kg daily
Protocol: In order to assess whether ferrostatins can be used in a long-term efficacy, we performed a toxicity study with the three analogs to determine whether symptomatic R6/2 mice could tolerate chronic administration of analog. Use TH-4-55-2 as an example: symptomatic R6/2 mice of both sexes at ˜10 weeks of age were dosed daily with 20 mg/kg TH-4-55-2 via both IP and oral gavage for 30 days. Body weight was measured and recorded and the % change in body weight from the baseline calculated. Any mice that lost more than 20% of their body weight for three days were euthanized prior to the completion of the study.
Ferrostatin analogs were dissolved in 5% DMSO/95% of 1:1 [(65% v/v of 25% w/v 2-hydroxypropyl-β-cyclodextrin dissolved in 20% EtOH, 30% v/v Poly(ethylene glycol)-400, 5% v/v Tween 80):MilliQ water] to create a 2 mg/mL solution. The same formulation without analog was used as a vehicle control. The solution was sterilized using a […] Steriflip filter unit. C57BL/6 and R6/2 mice at ˜10 weeks of age, after onset of symptoms in R6/2 mice, were injected with ferrostatin analog or vehicle at a dose of 20 mg/kg daily for 30 days via IP and PO routes of administration. […] Mice were randomly assigned to each condition, weighed daily, the weight recorded, and the change in body weight compared to the baseline, pre-injection weight was calculated. Any mouse that lost more than 20% of its baseline body weight for three consecutive days was euthanized prior to the completion of the study. Injections occurred daily at the same time in the day to ensure consistency. Experimental blinding was achieved by separating the syringe preparation and the injection and data analysis components, with one researcher preparing the syringes and the other injecting the mice and analyzing the data. Unblinding occurred at the termination of the study after the completion of data analysis. Data were plotted and analyzed in Graph Pad Prism 9.0 with significance determined via Two Way ANOVA or Mixed-effects model with Tukey's test for multiple comparisons.
Symptomatic R6/2 and age-matched C57BL/6 wild type mice of both sexes at ˜10 weeks of age were dosed daily with 20 mg/kg of TH-4-55-2 via IP or PO for 30 days. Body weight was measured and recorded and the percent change in body weight from baseline calculated. Per IACUC guidelines, any mouse that lost more than 20% body weight for three days was euthanized prior to completion of the study.

HT-1080 cells = experiment: Cell viability assays in HT-1080 cells, ferroptosis induced by IKE or RSL3 (Example 8); type: cell-based; settings: for IC50: Homo sapiens, HT-1080, 48 h
[3] = ^b 2 μM IKE, 48 hours, 1,000 cells/well
[4] = ^c 0.2 μM RSL3, 48 hours, 1,000 cells/well

Row | Compound | mutagenic potential (Ames test result) [1] | tolerability of chronic administration [2] | protection against body weight loss ([2]; PO administration, 20 mg/kg) | potency relative to fer-1 at suppressing ferroptosis, in words (HT-1080 cells) | IC50 (HT-1080 cells; [3]) [nM] | IC50 (HT-1080 cells; [4]) [nM] | deaths after 30 days ([2]; IP administration) | deaths after 30 days ([2]; PO administration, 20 mg/kg)
1 | Cc1noc(-c2cnc(NC3CCCCC3)c(NC3CCCCC3)c2)n1 [TH-2-31, N^2,N^3-dicyclohexyl-5-(3-methyl-1,2,4-oxadiazol-5-yl)pyridine-2,3-diamine] | none of the compounds had mutagenic potential | no detectable weight loss induced by either compound | didn't show this protective effect | potencies greater than fer-1 | 5.6 | 4.8 |  | 
2 | CCOC(=O)c1ccc(NC2CCCCC2)c(N)c1 [Fer-1, Ferrostatin-1, reference compound] |  |  |  |  | 9.1 | 3.6 |  | 
3 | Cc1noc(-c2cnc(NC3CCCC3)c(NC3CCCC3)c2)n1 [TH-4-67, N^2,N^3-dicyclopentyl-5-(3-methyl-1,2,4-oxadiazol-5-yl)pyridine-2,3-diamine] | none of the compounds had mutagenic potential | no detectable weight loss induced by either compound | didn't show this protective effect |  |  |  |  | 
4 | Cc1noc(-c2ccc(NC3CCCCC3)c(NC3CCCCC3)c2)n1 [PHB4082, N1,N2-dicyclohexyl-4-(3-methyl-1,2,4-oxadiazol-5-yl)benzene-1,2-diamine] |  |  |  | more potent than fer-1 |  |  |  | 
5 | CCC(CC)Nc1cc(-c2nc(C)no2)cnc1NC1CCCCC1 [TH-4-55-2, N^2-cyclohexyl-5-(3-methyl-1,2,4-oxadiazol-5-yl)-N^3-(pentan-3-yl)pyridine-2,3-diamine] | none of the compounds had mutagenic potential | well-tolerated in a 30-day toxicity study in wild-type mice and symptomatic R6/2 HD mice; also recorded: non-toxic and well-tolerated by R6/2 mice | protected from body weight loss over time; also recorded: showed protection against HD-related weight loss; also recorded: showed a significant protective effect; also recorded: appeared to have no loss in body weight during the injection series |  |  |  | one TH-4-55-2-treated mouse died | one TH-4-55-2-treated mouse died; also recorded: one TH-4-55-2-treated mice died
